According to ChEMBL document CHEMBL1926527, “Pharmacophore insights into rpoB gene mutations in Mycobacterium tuberculosis rifampicin resistant isolates” (2012):
Values after ≈ are worked out from the molar mass of the structure shown.

Experiments:
Type in all cases: functional
[1] = test system: Mycobacterium tuberculosis; test: Antimycobacterial activity against Mycobacterium tuberculosis isolate MA03 expressing wild-type rpoB gene by resazurin microtiter assay
[2] = test system: Mycobacterium tuberculosis; test: Antimycobacterial activity against Mycobacterium tuberculosis isolate 353 expressing wild-type rpoB gene by resazurin microtiter assay
[3] = test system: Mycobacterium tuberculosis; test: Antimycobacterial activity against Mycobacterium tuberculosis isolate 359 expressing wild-type rpoB gene by resazurin microtiter assay
[4] = test system: Mycobacterium tuberculosis; test: Antimycobacterial activity against Mycobacterium tuberculosis H37Rv ATCC 27294 expressing wild-type rpoB gene by resazurin microtiter assay
[5] = test system: Mycobacterium tuberculosis; test: Antimycobacterial activity against Mycobacterium tuberculosis isolate 361 expressing wild-type rpoB gene by resazurin microtiter assay

Row | Structure (SMILES) | MIC [1] | MIC [2] | MIC [3] | MIC [4] | MIC [5]
1 | C=CCCCCCCCCC(=O)N1C2=C3NC(=O)/C(C)=C\C=C\[C@H](C)[C@H](O)[C@@H](C)[C@@H](O)[C@@H](C)[C@H](OC(C)=O)[C@H](C)[C@@H](OC)/C=C/O[C@@]4(C)Oc5c(C)c(O)c(c(c5C4=O)C2=NC12CCN(CC(C)C)CC2)C3=O | < 0.06 µg/mL | > 2 µg/mL | < 0.06 µg/mL | 0.06 µg/mL (≈ 0.0592 µM) | < 0.06 µg/mL
2 | CO[C@H]1/C=C/O[C@@]2(C)Oc3c(C)c(O)c4c(O)c(c(/C=N/N5CCN(C)CC5)c(O)c4c3C2=O)NC(=O)/C(C)=C\C=C\[C@H](C)[C@H](O)[C@@H](C)[C@@H](O)[C@@H](C)[C@H](OC(C)=O)[C@@H]1C [RIFAMPIN] | < 0.06 µg/mL | > 2 µg/mL | 0.12 µg/mL (≈ 0.146 µM) | 0.06 µg/mL (≈ 0.0729 µM) | < 0.06 µg/mL
3 | CO[C@H]1/C=C/O[C@@]2(C)Oc3c(C)c(O)c4c(c3[C@H]2O)C2=NC3(CCN(CC(C)C)CC3)NC2=C(NC(=O)/C(C)=C\C=C\[C@H](C)[C@H](O)[C@@H](C)[C@@H](O)[C@@H](C)[C@H](O)[C@@H]1C)C4=O | < 0.06 µg/mL | 2 µg/mL (≈ 2.48 µM) | 0.25 µg/mL (≈ 0.31 µM) | 0.06 µg/mL (≈ 0.0743 µM) | 0.12 µg/mL (≈ 0.149 µM)
4 | CO[C@H]1/C=C/O[C@@]2(C)Oc3c(C)c(O)c4c(c3[C@H]2O)C2=NC3(CCN(CC(C)C)CC3)N(C(C)=O)C2=C(NC(=O)/C(C)=C\C=C\[C@H](C)[C@H](O)[C@@H](C)[C@@H](O)[C@@H](C)[C@H](OC(C)=O)[C@@H]1C)C4=O | < 0.06 µg/mL | > 2 µg/mL | < 0.06 µg/mL | 0.06 µg/mL (≈ 0.0673 µM) | < 0.06 µg/mL
5 | CO[C@H]1/C=C/O[C@@]2(C)Oc3c(C)c(O)c4c(c3C2=O)C2=NC3(CCN(CC(C)C)CC3)NC2=C(NC(=O)/C(C)=C\C=C\[C@H](C)[C@H](O)[C@@H](C)[C@@H](O)[C@@H](C)[C@H](OC(C)=O)[C@@H]1C)C4=O [RIFABUTIN] | < 0.06 µg/mL | 0.12 µg/mL (≈ 0.142 µM) | < 0.06 µg/mL | 0.06 µg/mL (≈ 0.0708 µM) | < 0.06 µg/mL
6 | CCCCCCCCCCCCCCCC(=O)N1C2=C3NC(=O)/C(C)=C\C=C\[C@H](C)[C@H](O)[C@@H](C)[C@@H](O)[C@@H](C)[C@H](OC(C)=O)[C@H](C)[C@@H](OC)/C=C/O[C@@]4(C)Oc5c(C)c(O)c(c(c5C4=O)C2=NC12CCN(CC(C)C)CC2)C3=O | < 0.06 µg/mL | > 2 µg/mL | < 0.06 µg/mL | 0.06 µg/mL (≈ 0.0553 µM) | < 0.06 µg/mL
7 | CO[C@H]1/C=C/O[C@@]2(C)Oc3c(C)c(O)c4c(c3C2=O)C2=NC3(CCN(CC(C)C)CC3)N(C(C)=O)C2=C(NC(=O)/C(C)=C\C=C\[C@H](C)[C@H](O)[C@@H](C)[C@@H](O)[C@@H](C)[C@H](OC(C)=O)[C@@H]1C)C4=O | < 0.06 µg/mL | 0.12 µg/mL (≈ 0.135 µM) | < 0.06 µg/mL | 0.06 µg/mL (≈ 0.0675 µM) | < 0.06 µg/mL
8 | CO[C@H]1/C=C/O[C@@]2(C)Oc3c(C)c(O)c4c(c3C2=O)C2=NC3(CCN(CC(C)C)CC3)NC2=C(NC(=O)/C(C)=C\C=C\[C@H](C)[C@H](O)[C@@H](C)[C@@H](O)[C@@H](C)[C@H](O)[C@@H]1C)C4=O | < 0.06 µg/mL | > 2 µg/mL | < 0.06 µg/mL | 0.06 µg/mL (≈ 0.0745 µM) | < 0.06 µg/mL
